Where “and” joins values, the source holds several entries; their conditions need not be identical. Equal entries are not always repeated.

Format in all cases: cell-based, human
Assay [1] relates to co-spheroidal culture DPF-ORSK. Kind of assay: Morphological evaluation of proto-follicle microtissues by H&E staining. To be noted: Inositol 0.5%, Inositol 0.25% + L-arginine 0.25%. As for the experimental part:
(§1) The reconstituted proto-follicle was obtained by using fibroblast cells and human keratinocytes using the Gravity^PLUS™ method, a system developed by InSphero (InSphero AG, Zurich, Switzerland), which allows the formation of spheroids or micro-tissues of homogeneous size using the hanging drops technology. The micro-tissues were transferred to Gravity^TRAP plates for treatment and control of culture conditions: 37 °C incubator, 5% CO2, suitably saturated atmosphere of the culture medium.
(§2) In order to assess the biological effect of each of the above compositions on the micro-tissue cultures in question, the following parameters were measured: • Quantification of ATP, as a marker of cell viability. • Morphological evaluation during culture of the proto-follicle, by staining with hematoxylin-eosin (H&E). • Immunohistochemical evaluation of Cytokeratin 6 (CK6), wherein CK6 is a keratin type II present in the skin and the hair follicle, which has an important role in the formation of the intermediate filament and is involved in tissue remodeling during stress phenomena.
(§3) In order to observe the short- and long-term effect of the compositions mentioned above, the evaluation of the above parameters was made at 24H (T2) and 120H (T6) after the beginning of therapy.

For assay [2], the system named is Cytokeratin 6 (CK6). Description: Immunohistochemical evaluation of cytokeratin 6 in proto-follicle microtissues. Particulars: Inositol 0.5%, Inositol 0.25% + L-arginine 0.25%, Cyclosporin A 10 ng/mL; result in words. As for the experimental part:
as §1, §2, §3

The subject of assay [3] is type IV collagen (COLIV). Kind of assay: Semi-quantitative determination of type IV collagen by immunofluorescence (confocal microscopy). To be noted: 120 H; duplicate (one row per replicate); Inositol 0.5%, Inositol + Arginine 0.25% + 0.25%.

With `O[C@H]1[C@H](O)[C@@H](O)[C@H](O)[C@@H](O)[C@H]1O` [Inositol], the “morphological qualitative evaluation of micro-tissues (H&E)” value in assay [1] (T2 (24H)) is given as “more compact lamellar structure”; in assay [1] (T6 (120H), Cyclosporin A 10 ng/mL) it was “more compact lamellar structure”. Moreover, the “follicular CK6 expression / proto-hair structure and coloring” value in assay [2] was “not different from those shown by the samples treated with Cyclosporin A”. Moreover, in assay [3], the “semi-quantitative analysis of COLIV” value was 69 and 94.

The record behind these values is patent EP3538062B1, “ASSOCIATION CONSISTING OF INOSITOL AND ARGININE FOR MAINTAINING HOMEOSTASIS OF THE HAIR AND SCALP” (Unifarco S.p.A., priority 2016, dated 2018).
